Patent US11732256B2, “Multivalent glycopeptides that tightly bind to target proteins” (Brandeis University, priority 2013, dated 2023)
pKd: −log10 of the molar value. *1 amine or outer side, *2 acyl side, *3 side chain or, on linkers, in order; H or OH if unused. Where a SMILES comes first, the peptide text is derived from it. [ ]: non-standard residue; d: D form. The star is where a group is joined. X1 = O=C([C@H](CCc1cn(C2CCC(OC3O[C@H](CO[C@H]4O[C@H](CO[C@H]5O[C@H](CO)[C@@H](O)[C@H](O)[C@@H]5O[C@H]5O[C@H](CO)[C@@H](O)[C@H](O)[C@@H]5O)[C@@H](O)[C@H](O[C@H]5O[C@H](CO)[C@@H](O)[C@H](O)[C@@H]5O[C@H]5O[C@H](CO)[C@@H](O)[C@H](O)[C@@H]5O)[C@@H]4O)[C@@H](O)[C@H](O[C@H]4O[C@H](CO)[C@@H](O)[C@H](O)[C@@H]4O[C@H]4O[C@H](CO)[C@@H](O)[C@H](O)[C@@H]4O[C@H]4O[C@H](CO)[C@@H](O)[C@H](O)[C@@H]4O)[C@@H]3O)CC2)nn1)N[*:1])[*:2]; For = O=C*

Test system: HIV broadly neutralizing antibody 2G12
Experiment: Radioactive 2G12-glycopeptide binding assay with protein G magnetic beads (binding curve and KD determination)
Method: The sequences were obtained by cloning non-selected library DNA. […] FIG. 9B is an SDS-PAGE analysis of the click reaction of the non-selected peptides. Both peptides were transcribed and translated from PCR-amplified DNA in Pure System that contains 0.02 mg/mL T7 RNA polymerase and additional 1 mM each NTP. The peptides were labeled with 3H-histidine and the bands were visualized by fluorography.
For round 10 winners, 0.12-0.2 nM radioactive glycopeptides were incubated with 0, 0.25, 0.5, 1, 2, 4, 8, 16, 32 or 64 nM 2G12 in 40 μL of selection buffer at room temperature for 1 h. Then, the solution was added to 0.12 mg of pre-equilibrated Dynabeads Protein G and tumbled at room temperature for 30 min. The supernatant was removed and the beads were washed with 3×40 μL of selection buffer. The radioactivities of the supernatant and wash solutions were measured by liquid scintillation counting as unbound fractions. […] The beads were resuspended in 40 μL of selection buffer, heated at 70° C. for 30 min to elute the bound glycopeptides, chilled on ice for 5 min, and tumbled at room temperature for 10 min. The supernatant was removed, and the beads were washed with 40 μL of selection buffer and resuspended in 40 μL of selection buffer. The radioactivities of these solutions and suspensions were measured by liquid scintillation counting separately and the values were combined as apparent bound fractions. […] All experiments were done at least in triplicate. KDs were calculated as described in the footnote of Table 4 (below).

[1] = Table 6 mutants/truncations, radioactive binding assay

Compound	Fmax [%] [1] [%]	2G12 binding after truncation (truncated clones)	pKd [1]	pKd (Table 4, radiolabeled ribosomally translated glycopeptide, varied 2G12, room temperature, ± standard error of curve fit)
CC[C@H](C)[C@H](NC(=O)[C@H](CO)NC(=O)[C@H](CCCNC(=N)N)NC(=O)[C@H](CCc1cn(C2CCC(OC3O[C@H](CO[C@H]4O[C@H](CO[C@H]5O[C@H](CO)[C@@H](O)[C@H](O)[C@@H]5O[C@H]5O[C@H](CO)[C@@H](O)[C@H](O)[C@@H]5O)[C@@H](O)[C@H](O[C@H]5O[C@H](CO)[C@@H](O)[C@H](O)[C@@H]5O[C@H]5O[C@H](CO)[C@@H](O)[C@H](O)[C@@H]5O)[C@@H]4O)[C@@H](O)[C@H](O[C@H]4O[C@H](CO)[C@@H](O)[C@H](O)[C@@H]4O[C@H]4O[C@H](CO)[C@@H](O)[C@H](O)[C@@H]4O[C@H]4O[C@H](CO)[C@@H](O)[C@H](O)[C@@H]4O)[C@@H]3O)CC2)nn1)NC=O)C(=O)N1CCC[C@H]1C(=O)N[C@@H](Cc1c[nH]c2ccccc12)C(=O)N[C@@H](Cc1ccc(O)cc1)C(=O)N[C@H](C(=O)N[C@@H](Cc1ccc(O)cc1)C(=O)N[C@@H](CCCNC(=N)N)C(=O)N[C@@H](Cc1c[nH]c2ccccc12)C(=O)N[C@@H](CC(C)C)C(=O)N1CCC[C@H]1C(=O)N[C@@H](CC(N)=O)C(=O)NCC(=O)N[C@@H](CO)C(=O)NCC(=O)N[C@@H](CO)C(=O)N[C@@H](CC(C)C)C(=O)NCC(=O)N[C@@H](Cc1c[nH]cn1)C(=O)N[C@@H](Cc1c[nH]cn1)C(=O)N[C@@H](Cc1c[nH]cn1)C(=O)N[C@@H](Cc1c[nH]cn1)C(=O)N[C@@H](Cc1c[nH]cn1)C(=O)N[C@@H](Cc1c[nH]cn1)C(=O)N[C@@H](CCCNC(=N)N)C(=O)N[C@@H](CC(=O)O)C(=O)N[C@@H](Cc1ccc(O)cc1)C(=O)N[C@@H](CCCCN)C(=O)N[C@@H](CC(=O)O)C(=O)N[C@@H](CC(=O)O)C(=O)N[C@@H](CC(=O)O)C(=O)N[C@@H](CC(=O)O)C(=O)N[C@@H](CCCCN)C(=O)O)[C@@H](C)O (stereo partly shown) [Clone 10V1-Δ19, XRSIPWYTYRWLPN] (For-[X1]RSIPWYTYRWLPNGSGSLGHHHHHHRDYKDDDDK-OH; C-terminus assumed)	20	tight binding		
CC[C@H](C)[C@H](NC(=O)[C@H](CCCNC(=N)N)NC(=O)[C@H](CCCNC(=N)N)NC(=O)CNC(=O)[C@H](CC(=O)O)NC(=O)[C@H](CC(N)=O)NC(=O)[C@H](CC(C)C)NC(=O)[C@@H](NC(=O)[C@H](CCc1cn(C2CCC(OC3O[C@H](CO[C@H]4O[C@H](CO[C@H]5O[C@H](CO)[C@@H](O)[C@H](O)[C@@H]5O[C@H]5O[C@H](CO)[C@@H](O)[C@H](O)[C@@H]5O)[C@@H](O)[C@H](O[C@H]5O[C@H](CO)[C@@H](O)[C@H](O)[C@@H]5O[C@H]5O[C@H](CO)[C@@H](O)[C@H](O)[C@@H]5O)[C@@H]4O)[C@@H](O)[C@H](O[C@H]4O[C@H](CO)[C@@H](O)[C@H](O)[C@@H]4O[C@H]4O[C@H](CO)[C@@H](O)[C@H](O)[C@@H]4O[C@H]4O[C@H](CO)[C@@H](O)[C@H](O)[C@@H]4O)[C@@H]3O)CC2)nn1)NC=O)C(C)C)C(=O)N[C@H](C(=O)N[C@@H](CCC(N)=O)C(=O)N[C@@H](CCc1cn(C2CCC(OC3O[C@H](CO[C@H]4O[C@H](CO[C@H]5O[C@H](CO)[C@@H](O)[C@H](O)[C@@H]5O[C@H]5O[C@H](CO)[C@@H](O)[C@H](O)[C@@H]5O)[C@@H](O)[C@H](O[C@H]5O[C@H](CO)[C@@H](O)[C@H](O)[C@@H]5O[C@H]5O[C@H](CO)[C@@H](O)[C@H](O)[C@@H]5O)[C@@H]4O)[C@@H](O)[C@H](O[C@H]4O[C@H](CO)[C@@H](O)[C@H](O)[C@@H]4O[C@H]4O[C@H](CO)[C@@H](O)[C@H](O)[C@@H]4O[C@H]4O[C@H](CO)[C@@H](O)[C@H](O)[C@@H]4O)[C@@H]3O)CC2)nn1)C(=O)N[C@@H](CO)C(=O)N[C@@H](CS)C(=O)N[C@@H](CCC(=O)O)C(=O)N[C@@H](CC(C)C)C(=O)N1CCC[C@H]1C(=O)N[C@@H](CCc1cn(C2CCC(OC3O[C@H](CO[C@H]4O[C@H](CO[C@H]5O[C@H](CO)[C@@H](O)[C@H](O)[C@@H]5O[C@H]5O[C@H](CO)[C@@H](O)[C@H](O)[C@@H]5O)[C@@H](O)[C@H](O[C@H]5O[C@H](CO)[C@@H](O)[C@H](O)[C@@H]5O[C@H]5O[C@H](CO)[C@@H](O)[C@H](O)[C@@H]5O)[C@@H]4O)[C@@H](O)[C@H](O[C@H]4O[C@H](CO)[C@@H](O)[C@H](O)[C@@H]4O[C@H]4O[C@H](CO)[C@@H](O)[C@H](O)[C@@H]4O[C@H]4O[C@H](CO)[C@@H](O)[C@H](O)[C@@H]4O)[C@@H]3O)CC2)nn1)C(=O)N[C@H](C(=O)N[C@@H](CCCNC(=N)N)C(=O)N[C@@H](CCCNC(=N)N)C(=O)N[C@@H](CO)C(=O)NCC(=O)N[C@@H](CO)C(=O)NCC(=O)N[C@@H](CO)C(=O)N[C@@H](CC(C)C)C(=O)NCC(=O)N[C@@H](Cc1c[nH]cn1)C(=O)N[C@@H](Cc1c[nH]cn1)C(=O)N[C@@H](Cc1c[nH]cn1)C(=O)N[C@@H](Cc1c[nH]cn1)C(=O)N[C@@H](Cc1c[nH]cn1)C(=O)N[C@@H](Cc1c[nH]cn1)C(=O)N[C@@H](CCCNC(=N)N)C(=O)N[C@@H](CC(=O)O)C(=O)N[C@@H](Cc1ccc(O)cc1)C(=O)N[C@@H](CCCCN)C(=O)N[C@@H](CC(=O)O)C(=O)N[C@@H](CC(=O)O)C(=O)N[C@@H](CC(=O)O)C(=O)N[C@@H](CC(=O)O)C(=O)N[C@@H](CCCCN)C(=O)O)C(C)C)C(C)C (stereo partly shown) [Clone 10F5-Δ11, XVLNDGRRIVQXSCELPXVRRS]	17		< 6.70	
XDTLHLKQIGGXPNSITQQDVRXTSIPYTYTWP [Clone 10F3-C15S]	63		8.54	
XYKNIPSTTXNLYSKPXATVTTLKCKLNGNRIS [Clone 12G]				< 6.89
